According to patent publication US5473074A, “Adenosine diphosphoribose polymerase binding nitroso aromatic compounds useful as retroviral inactivating agents, anti-retroviral agents and anti-tumor agents-54” (priority 1992, dated 1995):
Entries after “also recorded” stand apart in the source; their conditions may differ.

Legend:
L1210 murine leukemia = L1210 murine leukemia in vivo in BDF mice; set-up: species or system mouse; conditions: 2 mg/kg i.p. twice a day
[1] = test system: HIV-1 (MN strain) virions; test: Zinc loss from HIV-1 virions treated with NOBA; assay type: biochemical
Experimental: Experiments were performed to determine if NOBA is capable of ejecting zinc from intact virions. HIV-1 (MN strain) was produced, purified and concentrated as described in Bess et al., J. Virol. 66:840-847 (1992). The concentrated virus was diluted to 60 times that of culture fluid in TNE buffer (0.01M Tris-HCl, 0.1M NaCl, 1 mM EDTA, pH 7.2) and incubated with 3000 or 6000 μM NOBA at 37° C. The virus was then pelleted and washed with TNE buffer to remove weakly bound zinc. The quantity of zinc in the resulting viral pellets was determined as described in Bess et. al., J. Virol. 66:840-847 (1992).

HIV-1 (LAV strain) = test: HIV-1 inactivation assay in PHA-stimulated PBL (FIG. 13A, B); assay type: cell-based
Experimental: The assay was performed as described in FIG. 13A except that the 30 min. preincubation of virus with NOBA was carried out at 0, 22 or 37° C.
An HIV-1 stock having an infectivity titer of 100,000 TCID50 was incubated for 30 min. at 22° C. with either of the drugs. Control HIV samples, containing no drugs, were incubated in the same manner. […] At the end of this incubation cultures were assayed for productive infection by an immunoassay for HIV-1 antigens and by reverse transcriptase as described in McDougal, et al., J. Immunol Methods 76:171-183 (1985). Virus titers were expressed as percentile values (percent infected cultures) compared to the controls, containing HIV dilutions which were not preincubated with the C-nitroso drugs. In a separate series of experiments, HIV-1 dilutions and C-nitroso drugs (see upper abscissa) were not preincubated but were added simultaneously to lymphocytes in exactly the same concentrations as described previously (i.e., following preincubation) and viral growth monitored 9 days later. […] Chem. Soc. 111:395-396 (1989), South, et al., Biochem Pharm. 40:123-129 (1990), Summers, et al., Biochemistry 29:329-340 (1990), the inhibition of HIV-1 propagation was profound when C-nitroso drugs were preincubated with HIV-1, whereas only negligible effect on HIV-1 growth occurred when both drugs and virus were added simultaneously.
(§1) Experiments were performed in which the incubations with NOBA was carried out at 0°, 22°, and 37° C. […] In agreement with the negligible cytotoxic effect of C-nitroso drugs on non-tumor cells described elsewhere in this application, human lymphocytes tolerated NOBA up to 50 μM without major changes in cell metabolism, which was assayed by quantitative dye reduction as described in Mosaran, J. Imm. Methods 65:55-63 (1983).

[2] = PHA-PBL viability (MTT dye reduction); assay type: cell-based; conditions: human, read-out: concentration tolerated by human lymphocytes without major changes in cell metabolism
Experimental: PHA-PBL (10^6 /ml) were treated with increasing doses of NOBA for 24 hours in the presence of MTT substrate and the relative absorbance at 550 nm reflects the metabolic activity of the cells. The level of product formation in the absence of NOBA was considered to be 100% and all experimental values were normalized to that control value.
as §1

[3] = target: Zn(HIV1-F1)-oligonucleotide complex (Human immunodeficiency virus type 1 lw12.3 isolate, UniProt Q70622); test: NMR studies of Zn(HIV1-F1) nucleic acid binding; assay type: biochemical, HIV-1; conditions: two equivalents of NOBA (FIG. 11)
Excerpt: The downfield regions of the spectra show the signals of the aromatic and ribose H1' protons, and the upfield region contain signals of the methyl group protons. Dramatic spectral changes occur upon addition of oligonucleotide to Zn(HIV1-F1), including large upfield shifts of the Phe 2 and Ile 10 side chain=n signals and a downfield shifting and broadening of the guanosine-H8 proton signal (second from the top).
The reaction mechanism, schematically illustrated in FIG. 12, is consistent with the result of NMR analysis in FIGS. 10 and 11. The reaction mechanism proposed in FIG. 12 is a useful model but is not intended to limit the scope of the claimed invention.

[4] = test system: cancer cells (855-2 and HL-60 leukemia, D32, D37 and CRL 7712 glioblastoma, 186 medulla tumor, L1210 murine leukemia, MDA-468 human breast tumor); test: Functions of cancer cells in absence or presence of compounds (FIGS. 4-9); assay type: cell-based
Experimental: Experiments were performed in which the functions of various cancer cells (855-2 and HL-60 leukemia cells, D32, D37 and CRL 7712 glioblastoma cell lines, 186 medulla tumor cell line, L1210 murine leukemia cell line, MDA-468 human breast tumor cell line) and normal cells (neutrophil leukocytes and bone marrow or peripheral blood stream cells) were assessed in the absence or presence of the compounds.

855-2 cells [5] = test: Colony formation (CFU) in semi-solid medium, 855-2; assay type: cell-based, human; conditions: single cells in semi-solid medium
[6] = test system: normal rhesus bone marrow stem cells; test: CFU stem cell toxicity assay, FIG. 5A; conditions: 10 μM
855-2 cells [7] = test: MTT assay, cytocidal activity; assay type: cell-based, human; conditions: 10 μM, 100,000 cells/ml
Experimental: MTT (3-[4,5-[…]]-2,5-diphenyltetrazolium bromide) at 1 mg/ml was then added for 16 hours. The absorbance of the pelleted cell was then measured at 550 nm after adding DMSO to solubilze the cells.

[8] = test system: human leukemia cell lines (855-2, H9, HL-60, K562); test: [3H]thymidine uptake, human leukemia cell lines (FIG. 2); assay type: cell-based
Experimental: FIGS. 2A-2F are composite of graphs displaying the inhibitory effects of the ADRPT ligands on (FIG. 2A) 855-2 cells (a cell line of human B-cell lineage acute lymphoblastic leukemia), (FIG. 2B) H9 cells (a cell line of human T-cell lineage acute lymphoblastic leukemia), (FIG. 2C) HL-60 cells (a cell line of human acute nonlymphoblastic leukemia) and (FIG. 2D) K562 cells (a cell line of human chronic myelogenous leukemia). These cells were cultured while under the influence of the growth factors in 10% fetal bovine serum (FCS), whereas in (FIG. 2E) and (FIG. 2F) the 855-2 cells were cultured in the presence of autocrine growth factor activity (AGF) or low molecular weight-B-cell growth factor (BCGF, a T-cell derived lymphokine), respectively.

NC(=O)c1cccc(N=O)c1 [NOBA, 3-nitrosobenzamide]
life span of L1210-bearing BDF mice (L1210 murine leukemia; 6 consecutive days, untreated 10 days, 35 days = end of observation): 35 days | in vivo chemotherapeutic response, in words (L1210 murine leukemia; 6 days): highly significant in vivo chemotherapeutic response | toxic effects in mice (L1210 murine leukemia; 6 days): no toxic effects | Zinc Loss ([1]; 3,000 μM, 2 h, 37° C.): 52% | Zinc, NOBA-Treated Sample ([1]; 3,000 μM, 2 h, 37° C., control 0.21): 0.11 µg/mL | Zinc Loss ([1]; 6,000 μM, 4 h, 37° C.): 83% | Zinc, NOBA-Treated Sample ([1]; 6,000 μM, 4 h, 37° C., control 0.24): 0.04 µg/mL | losses of the viral zinc ([1]; 3000 or 6000 μM, 37° C.): 50-83% | infectivity of HIV-1 virions, in words ([1]; concentrated suspensions (60×)): complete loss of infectivity | loss of viral proteins in the pellet, in words ([1]; p24 and gp120 competition RIA, SDS-PAGE): No significant loss of viral proteins | log reduction at 100 µM (HIV-1 (LAV strain); Human immunodeficiency virus 1, 0.5 h, 100 μM, 30 min, 22° C., 9 days, read-out: decrease of infectious virus available to cause 50% infected cultures): 4 | relative depression of HIV-1 propagation, in words (HIV-1 (LAV strain); NOBA vs NOBP): greater depression of HIV-1 propagation | temperature of maximal inactivation of HIV-1 (HIV-1 (LAV strain); preincubation at 0°, 22° and 37° C.): 37 °C | MNTC at 24 h [2]: ≥ 50 µM | zinc ejection and loss of nucleic acid binding, in words [3]: ejection of zinc with concomitant dissociation of the zinc finger nucleic acid complex; also recorded: NOBA-induced zinc ejection leads to loss of high-affinity nucleic acid binding function | activity against tumor cells, in words [4]: highly effective (against tumor cells) | colony formation, 855-2, in words (855-2 cells [5]): inhibit the ability of human leukemic cells (855-2 and HL-60) to form colonies | CFU stem cell toxicity, in words [6]: non-toxic | killing of 855-2 cells (MTT), in words (855-2 cells [7]): complete killing | inhibition of 3H-thymidine uptake, in words ([8]; 10 μM, 855-2, H9, HL-60, K562 cells): powerfully inhibited 3H-thymidine uptake | molar concentrations needed to inhibit 3H-thymidine uptake, in words ([8]; each of the cell lines tested): able to inhibit 3H-thymidine uptake in lower molar concentrations than the other compounds
